# Test results: patent US20240115658A1, “Use of an intervertebral disc fibrosis-inducing substance in preparation of medication” (Shanghai Ninth People's Hospital, Shanghai JiaoTong …, priority 2020, published 2024)
# How the values were obtained:
# [1] = system: TGF-β/Smad pathway in annulus fibrosus cells; assay: Immunoprotein western-blotting of annulus fibrosus cells (activation of the TGF-β/Smad pathway); format: cell-based
# Experimental: Activation of the TGF-β/Smad pathway in annulus fibrosus cells by bleomycin:
# Method for immunoprotein western-blotting of annulus fibrosus cells:
# Annulus fibrosus cells (provided by CAS Cell Bank) were cultured in a six-well plate to which high-sugar DMEM medium+10% fetal bovine serum was added, the plate was placed in a 5% CO2 incubator at 37° C., and 5, 10 μg/ml of bleomycin and/or the TGFβR1 inhibitor LY364947 was added when the cell confluence was 70%-80% to co-culture for 30 min or 24 h. Total cellular protein was extracted from cultured annulus fibrosus cells (Medical Center of Rush University) by using RIPA lysis buffer (Roche, Basel, Switzerland) containing phosphatase and protease inhibitors. Equal amounts (20-30 μg) of extracted proteins were obtained by using 10% or 12.5% SDSPAGE gel, and proteins were separated by electroblotting with 0.22 μm PVDF membrane (Merck Millipore). The PVDF membrane was blocked with 5% BSA-PBS for 1 h at room temperature and then incubated with primary antibody (diluted at a ratio of 1:1000 in 5% BSA-PBS) overnight (at least 16 h) at 4° C. Anti-SMAD2 antibody (Ser308, D4364; rabbit monoclonal antibody), anti-phosphorylated SMAD2 antibody (Ser465/467, 138D4; rabbit monoclonal antibody), anti-SMAD3 antibody (C67H9; rabbit monoclonal antibody), anti-phosphorylated SMAD3 antibody (Ser423/425, C25A9; rabbit monoclonal antibody), anti-SMAD2/3 antibody (D7G7; rabbit monoclonal antibody), anti-phospho SMAD2/3 antibody (Ser465/467; Ser423/425; rabbit monoclonal antibody), anti-SMAD4 antibody (D3M6U; rabbit monoclonal antibody), and […] antibody (D6A8; rabbit monoclonal antibody) were purchased from Cell Signaling Technology (Danvers, Massachusetts, USA). […] The membrane was extensively rinsed in TBST again and protein immunobands were detected by using the LI-COR Odyssey Fluorescence Imaging System (LICOR Biosciences, Lincoln, NE, USA). […]
# [2] = system: punctured intervertebral disc (spinal degeneration); assay: Atomic force analysis of punctured disc paraffin sections; format: in vivo, Sprague-Dawley rats; conditions: Puncture+Bleomycin; FIG. 7 and 8
# Experimental: Atomic force analysis was performed by first extracting and dissecting the punctured vertebrae. Paraffin sections were made and then nanoindented (R<10 nm, nominal N/m, tips: Si/Tipless/Top, cantilevered Si/Al/Top; Park Systems) by using a Park NX20 (Park Systems, Korea) equipped with a microsphere colloidal tip. For undulating surfaces with large areas, a scan rate of 13 hz was used. Large scanning rates can reduce drift, but are generally only used to scan small planes. Indentation was performed by using a scanning Asyst air probe, where a z-piezo displacement rate was 10 μm/s, a maximum load was ˜120 nn, a curvature radius was 5 nm, and a force constant was 0.4 N/m.
# [3] = system: punctured intervertebral disc (spinal degeneration); assay: Digital X-ray and MRI imaging of punctured rat tail discs after disc local injection of bleomycin; format: in vivo, Sprague-Dawley rats; conditions: 5 μl of 10 and 5 μg/ml bleomycin per disc, injected two weeks after puncture, four weeks recovery
# Experimental: Six 8-week-old male Sprague-Dawley rats (Shanghai Laboratory, Shanghai Animal Research Center, China) were raised at 26-28° C. and 50-65% humidity for 12 h day and night. […] Before surgery, the rats were anesthetized by intraperitoneal injection of sodium pentobarbital (5 mg/100 g of body weight). The tails of rats were disinfected with iodinated polyvinyl pyrrolidone, and then a longitudinal skin incision was made to the tail near the ventral part to expose 6-10 parts of the intervertebral disc of the tail bone. The Co6/7 disc was used as a sham control, and Co7/8, Co8/9, and Co9/10 were used as experimental groups. A sterile 20-gauge needle was used to perpendicularly puncture the intervertebral disc through the skin, so as to ensure the needle passed through the annulus fibrosus and stuck into the nucleus pulposus located at the center of the intervertebral disc. The incision was then sutured and the rats were allowed to recover for two weeks. The rats (n=6) were re-subjected to surgery to expose Co8/9 and Co9/10 discs, and 5 μl of 10 and 5 μg/ml bleomycin were injected into each disc. The surgical incision was then sutured and the rats were allowed to recover for four weeks. At the end of the experiment, all rats were executed, the tails were collected, the soft tissues were cleared, and the spines were fixed with 4% PFA. Co6/7 was the control group (sham group), Co7/8 was the Puncture group, and Co8/9 and Co9/10 were the puncture+bleomycin administration groups (Bleomycin group).
# Digital X-ray imaging of the punctured disc samples (Puncture and Bleomycin groups) prepared in Embodiment 2 was performed in the anterior-posterior axis with a detector that provides up to 5× geometric magnification (Faxitron VersaVision; Faxitron Bioptics LLC, Tucson, AZ. USA). MRI imaging of the same punctured disc samples was performed on a Siemens MagnetomPrisma E11 (Siemens Healthineers, Erlangen, Germany) with the following parameters: TR 3000 ms, TE 80 ms, thickness 1.1 mm, interval 0.22 mm, field of view 160×65 mm, voxel size 0.25×0.1 mm.
# [4] = system: punctured intervertebral disc (spinal degeneration); assay: Safranin O-fast green staining, Sirius red staining and immunofluorescence of disc paraffin sections; format: in vivo, Sprague-Dawley rats
# Experimental: Fixed disc tissue specimens (sham group, Puncture group, and Bleomycin group) were embedded in paraffin blocks, followed by tissue sectioning (with a thickness of 5 μm). For histological evaluation, paraffin sections were stained with saffron O-solid green and Sirius red according to standard laboratory protocols. For immunofluorescence detection, tissue sections were de-paraffined in graded xylene, rehydrated in graded alcohol solution, and then incubated in antigen retrieval buffer (Roche) at 37° C. for 30 min. After cooling to room temperature, the slides were immersed in PBS (pH 7.4) and washed 3 times for 5 min each. Autofluorescence quencher was added to the sections, and 5 min later, blocking buffer was added to block the sections for 30 min at room temperature. The sections were then incubated with primary antibodies overnight in a wet chamber at 4° C. Primary antibodies were diluted at a ratio of 1:100, and included anti-Col1a1, anti-FSP1, anti-TGFβ, and anti-TGFβR1 (all purchased from Cell Signaling Technology). The next day, sections were washed with PBS, conjugated to secondary antibody (anti-rabbit, 1:500; Cell Signaling Technology) through Alexa-fluor594, and then incubated for 50 min in the dark at room temperature. The sections were washed with PBS and then incubated with DAPI solution (Sigma Aldrich, St. Louis, MO, USA) for 10 minutes in the dark to stain the nucleus. The sections were subjected to a final PBS wash, air-dried, and then sealed with an anti-fluorescence quenching flake. Digital fluorescence images were taken by using a Leica DM4000 B epifluorescence microscope (Leica Microsystems).
# [5] = 10 and 5 μg/ml of bleomycin, compared with the puncture group and the control group, FIG. 4
# [6] = Puncture+Bleomycin vs Puncture group, FIG. 3
substance,measurement,setting,value
bleomycin,p-smad2 and p-smad3 in annulus fibrosus cells,"[1]; 5, 10 μg/ml bleomycin, co-culture 30 min or 24 h, western blot, FIG. 1A and 1B",activated
same,expression of end-protein products Col1a1 and FSP1,"[1]; 5, 10 μg/ml bleomycin, co-culture 30 min or 24 h, western blot, FIG. 1C",increased
same,"fibrogenic-associated proteins TGFβ, FSP1, and Col1a1 (immunoprotein western-blot)",[1]; legend of FIG. 1C,highly expressed
same,fibrosis (atomic force analysis),[2],faster fibrosis
same,intervertebral space height (atomic force analysis),[2],preservation of the intervertebral space height
same,resistance of the disc to deformation (atomic force analysis),[2],increase in the resistance of the disc to deformation
same,signal of the intervertebral disc (MRI),[3],difficult to be preserved
same,stability of the disc (X-ray and MRI),[3],not significantly affected
same,intervertebral space height (X-ray and MRI),[3]; vs Puncture group,effectively maintained
same,staining percentage of annulus fibrous (green),[4]; [5],significantly increased
same,staining percentage of type I collagen (yellow),[4]; [5],significantly increased
same,staining percentage of type III collagen (green),[4]; [5],significantly increased
same,type I and type III collagens secreted (immunofluorescence),"[4]; Puncture+, Bleomycin 10 or 5, FIGS. 5 and 6",a large amount of type I and type III collagens was secreted
same,annulus fibrosus repair (staining),[4]; [6],completely repaired and migrated inward
same,intervertebral space height (Safranin O-fast green and Sirius red staining),[4]; [6],significantly higher
same,type I collagen secreted to fill the intervertebral space (staining),[4]; [6],large amounts of type I collagen were secreted
